From patent publication US7842660B2, “4-hepten-2-yl salicylate and its use as fragrance ingredient” (Givaudan SA, priority 2004, dated 2010)

System: panel of trained evaluators
Test: Determination of the GC-odor threshold values (gas chromatograph with sniff port)
Details: for odor threshold value, geometric mean: GC sniff port, absolute amount of compound delivered at the sniff port, identical conditions
Source text: As used herein “odor threshold value” means the lowest concentration of a vapor in the air which can be detected by smell. Generally speaking, it can be said that a compound with a low odor threshold value is more powerful than a compound with a high odor threshold value and thus allows the use of a very low concentration in a fragrance composition to achieve an olfactory effect. According to standard procedures known to the person skilled in the art, threshold values for volatile perfumery compounds are determined on a gas chromatograph equipped with a sniff port by a panel of trained evaluators. The lowest concentration smelled by each panelist is recorded as the individual threshold value expressed in ng (absolute amount of compound delivered at the sniff port). By way of comparison, there were also tested (Z)-2-methyl-3-hexen-1-yl salicylate and (Z)-3-hexen-1-yl 2-hydroxy-3-methylbenzoate. The objective was to show the considerable effect exerted by the position of a substituent. Under identical conditions the odor threshold value for the individual compounds was measured.

Row | SMILES | odor threshold value, geometric mean | odor threshold of the (Z)-isomer relative to the (E)-isomer (times lower) ((Z)- vs (E)-4-hepten-2-yl salicylate)
1 | CC/C=C\C(C)COC(=O)c1ccccc1O (centres unmarked) [(Z)-2-Methyl-3-hexen-1-yl salicylate] | 10 ng | –
2 | CC/C=C\CCOC(=O)c1ccccc1O [(Z)-3-Hexen-1-yl salicylate] | 0.92 ng | –
3 | CC/C=C\CCOC(=O)c1cccc(C)c1O [(Z)-3-Hexen-1-yl 2-hydroxy-3-methylbenzoate] | 201 ng | –
4 | CC/C=C\CC(C)OC(=O)c1ccccc1O (centres unmarked) [(Z)-4-Hepten-2-yl salicylate] | 0.77 ng | about 10 times
